This test has as its target PD-1/PD-L1 (Homo sapiens (Human), UniProt Q9NZQ7). The test can be described thus: PD-1/PD-L1 Binding Assay (Alphascreen). The conditions noted are these: range symbols. In a few lines: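 PD-1/PD-L1 binding detected by anti-6×His acceptor and streptavidin donor beads after 120 min in the dark at 25 °C. Beforehand, the two proteins were incubated 15 min at 25 °C with inhibitor at 0.015–300 nM (1% DMSO). IC50 comes from a log concentration–response curve.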
Sequence of PD-1/PD-L1 (Q9NZQ7 19-238): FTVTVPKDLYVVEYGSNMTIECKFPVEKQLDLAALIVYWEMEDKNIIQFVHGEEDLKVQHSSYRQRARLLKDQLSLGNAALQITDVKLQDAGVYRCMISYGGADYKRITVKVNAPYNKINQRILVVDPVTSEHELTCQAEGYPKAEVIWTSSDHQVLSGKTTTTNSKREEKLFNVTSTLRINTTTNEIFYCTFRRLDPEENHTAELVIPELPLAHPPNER
Compound `Cc1c(-c2ccc(CN3CCCC3)c(=O)[nH]2)cccc1-c1cccc(-c2nc3cc(CN4CCC[C@H]4C(=O)O)c(OC(F)F)cc3o2)c1C` [Example 267, ((6-(difluoromethoxy)-2-(2,2′-dimethyl-3′-(6-oxo-5-(pyrrolidin-1-ylmethyl)-1,6-dihydropyridin-2-yl)-[1,1′-biphenyl]-3-yl)benzo[d]oxazol-5-yl)methyl)-L-proline] returned an IC50 of 5 to 50 nM.

Consider `Cc1c(-c2nc3cc(CN4CCC[C@H]4C(=O)O)c(OC(F)F)cc3o2)cccc1-c1cccc(-c2cnc(CN3CCCC3)c(F)c2)c1C(F)F` [Example 268, ((6-(difluoromethoxy)-2-(2′-(difluoromethyl)-3′-(5-fluoro-6-(pyrrolidin-1-ylmethyl)pyridin-3-yl)-2-methyl-[1,1′-biphenyl]-3-yl)benzo[d]oxazol-5-yl)methyl)-L-proline], for which the IC50 lay in the range of 0.1 to 5 nM.

For the compound `Cc1c(-c2nc3cc(CN4CCC[C@H]4C(=O)O)c(OC(F)F)cc3o2)cccc1-c1cccc(-c2cnc(CN3CCCC3)c(F)c2)c1CF` [Example 269, ((6-(difluoromethoxy)-2-(3′-(5-fluoro-6-(pyrrolidin-1-ylmethyl)pyridin-3-yl)-2′-(fluoromethyl)-2-methyl-[1,1′-biphenyl]-3-yl)benzo[d]oxazol-5-yl)methyl)-L-proline], the IC50 fell in the range of 5 to 50 nM.

Consider `Cc1c(-c2nc3cc(CN4CCC[C@H]4C(=O)O)c(OC(F)F)cc3o2)cccc1-c1cccc(-c2ccc(CN3CCCC3)nc2F)c1C` [Example 270, ((6-(difluoromethoxy)-2-(3′-(2-fluoro-6-(pyrrolidin-1-ylmethyl)pyridin-3-yl)-2,2′-dimethyl-[1,1′-biphenyl]-3-yl)benzo[d]oxazol-5-yl)methyl)-L-proline], for which the IC50 was 5 to 50 nM. The figure for `COc1nc(-c2cccc(-c3cccc(-c4nc5cc(CN6CCC[C@H]6C(=O)O)c(OC(F)F)cc5o4)c3C)c2C)ccc1CN1CC(C)(C)C1` [Example 271, ((6-(difluoromethoxy)-2-(3′-(5-((3,3-dimethylazetidin-1-yl)methyl)-6-methoxypyridin-2-yl)-2,2′-dimethyl-[1,1′-biphenyl]-3-yl)benzo[d]oxazol-5-yl)methyl)-L-proline] is 0.1 to 5 nM. The figure for `COc1nc(-c2cccc(-c3cccc(-c4nc5cc(CN6CCC[C@@H]6C(=O)O)c(OC(F)F)cc5o4)c3C)c2C)ccc1CN1CC[C@H](C)C1` [Example 273, ((6-(difluoromethoxy)-2-(3′-(6-methoxy-5-(((S)-3-methylpyrrolidin-1-yl)methyl)pyridin-2-yl)-2,2′-dimethyl-[1,1′-biphenyl]-3-yl)benzo[d]oxazol-5-yl)methyl)-D-proline] is 5 to 50 nM; for `C=Cc1cc(-c2cccc(-c3cccc(-c4nc5cc(CN6CCC[C@H]6C(=O)O)c(OC(F)F)cc5o4)c3C)c2C)ncc1CN1CCCC1` [Example 274, ((6-(difluoromethoxy)-2-(2,2′-dimethyl-3′-(5-(pyrrolidin-1-ylmethyl)-4-vinylpyridin-2-yl)-[1,1′-biphenyl]-3-yl)benzo[d]oxazol-5-yl)methyl)-L-proline] it is 0.1 to 5 nM. The figure for `COc1nc(-c2cccc(-c3cccc(-c4nc5cc(CN6CCC[C@H]6C(=O)O)c(OC(F)F)cc5o4)c3C)c2C)ccc1CN1CCC(C(F)F)C1` (stereo partly drawn) [Example 275, ((6-(difluoromethoxy)-2-(3′-(5-((3-(difluoromethyl)pyrrolidin-1-yl)methyl)-6-methoxypyridin-2-yl)-2,2′-dimethyl-[1,1′-biphenyl]-3-yl)benzo[d]oxazol-5-yl)methyl)-L-proline] is 5 to 50 nM; for `COc1nc(-c2cccc(-c3cccc(-c4nc5cc(CN6CCC[C@H]6C(=O)O)c(OC(F)F)cc5o4)c3C)c2C)ccc1CN1CCC[C@@H]1C` [Example 277, ((6-(difluoromethoxy)-2-(3′-(6-methoxy-5-(((S)-2-methylpyrrolidin-1-yl)methyl)pyridin-2-yl)-2,2′-dimethyl-[1,1′-biphenyl]-3-yl)benzo[d]oxazol-5-yl)methyl)-L-proline] it is 0.1 to 5 nM.

Source of the values: patent US12187713B2, “Immunomodulators, compositions and methods thereof” (Betta Pharmaceuticals Co., Ltd, priority 2019, dated 2025).
